Activity calls are given as the source filed them. No cut-off for these calls is given here.

We go through two molecules from ChEMBL document CHEMBL5365481, “Design, Synthesis, and Activity Evaluation of Novel Dual-Target Inhibitors with Antifungal and Immunoregulatory Properties” (J Med Chem, 2023).

Series [1] concerns Candida albicans. The series can be described thus: In vivo antifungal activity against Candida albicans ATCC SC5314 infected in BALB/c mouse assessed as increase in body weight at 10 ug, ip for 14 days in presence of Biphenyl isopropyl ester. Format: functional, organism-based. The conditions noted are these: dose 10.0 µg, time 14.0 day.
Series [2] deals with Candida albicans. The series can be described thus: In vivo antifungal activity against Candida albicans ATCC SC5314 infected in BALB/c mouse assessed as shrinkage in infected region at 10 ug, ip for 14 days in presence of Biphenyl isopropyl ester. Type of series: functional, organism-based. Particulars: dose 10.0 µg, time 14.0 day.
The test system of series [3] is Candida albicans. The series can be described thus: In vivo antifungal activity against Candida albicans ATCC SC5314 infected in BALB/c mouse assessed as disappearance of nuclei aggregation at 10 ug, ip for 14 days in presence of Biphenyl isopropyl ester by GMS staining based microscopy. Format: functional, organism-based. Particulars: dose 10.0 µg, time 14.0 day.

The test system of series [4] is Candida albicans. The series can be described thus: In vivo antifungal activity against Candida albicans ATCC SC5314 infected in BALB/c mouse assessed as reversal of cell morphology to normal state at 10 ug, ip for 14 days in presence of Biphenyl isopropyl ester by GMS staining based microscopy. Type of series: functional, organism-based. The conditions noted are these: dose 10.0 µg, time 14.0 day.

Series [5] relates to Candida albicans. The series can be described thus: In vivo antifungal activity against Candida albicans ATCC SC5314 infected in BALB/c mouse assessed as decrease in necrotic cell debris in tissue gap at 10 ug, ip for 14 days in presence of Biphenyl isopropyl ester by GMS staining based microscopy. Particulars: dose 10.0 µg, time 14.0 day. Type of series: functional, organism-based.

Series [6] can be described thus: Toxicity in BALB/c mouse infected with Candida albicans ATCC SC5314 assessed as morphological changes in heart at 10 ug, ip for 14 days in presence of Biphenyl isopropyl ester by H and E staining based microscopy. Particulars: in vivo, 336 h, dose 10 µg, time 14 day. Type of series: organism-based.
Series [7] is described as follows: Toxicity in BALB/c mouse infected with Candida albicans ATCC SC5314 assessed as morphological changes in spleen at 10 ug, ip for 14 days in presence of Biphenyl isopropyl ester by H and E staining based microscopy. Format: organism-based. The conditions noted are these: in vivo, 336 h, dose 10 µg, time 14 day.
Series [8] in a line: Toxicity in BALB/c mouse infected with Candida albicans ATCC SC5314 assessed as morphological changes in lung at 10 ug, ip for 14 days in presence of Biphenyl isopropyl ester by H and E staining based microscopy. Type of series: organism-based. The conditions noted are these: in vivo, 336 h, dose 10 µg, time 14 day.
A short description of series [9]: Toxicity in BALB/c mouse infected with Candida albicans ATCC SC5314 assessed as plasma AST level at 10 ug, ip for 14 days in presence of Biphenyl isopropyl ester. Format: organism-based. The conditions noted are these: in vivo, 336 h, dose 10 µg, time 14 day.
A short description of series [10]: Toxicity in BALB/c mouse infected with Candida albicans ATCC SC5314 assessed as plasma BUN level at 10 ug, ip for 14 days in presence of Biphenyl isopropyl ester. Format: organism-based. The conditions noted are these: in vivo, 336 h, dose 10 µg, time 14 day.
For series [11], the system named is Candida albicans. Nature of the series: In vivo antifungal activity against Candida albicans ATCC SC5314 infected in BALB/c mouse assessed as decrease in COX2 expression level at 10 ug, ip for 14 days in presence of Biphenyl isopropyl ester by Western blot analysis. Type of series: functional, organism-based. The conditions noted are these: dose 10.0 µg, time 14.0 day. On the technique in general: A western blot detects proteins with antibodies after separation by electrophoresis.

Series [12] relates to Candida albicans. Nature of the series: In vivo antifungal activity against Candida albicans ATCC SC5314 infected in BALB/c mouse assessed as decrease in NLRP3 expression level at 10 ug, ip for 14 days in presence of Biphenyl isopropyl ester by Western blot analysis. Particulars: dose 10.0 µg, time 14.0 day. Type of series: functional, organism-based.
The subject of series [13] is Candida albicans. Nature of the series: In vivo antifungal activity against Candida albicans ATCC SC5314 infected in BALB/c mouse assessed as decrease in IFN-gamma expression level at 10 ug, ip for 14 days in presence of Biphenyl isopropyl ester by Western blot analysis. Format: functional, organism-based. The conditions noted are these: dose 10.0 µg, time 14.0 day.

The subject of series [14] is Candida albicans. The series can be described thus: In vivo antifungal activity against Candida albicans ATCC SC5314 infected in BALB/c mouse assessed as decrease in COX2 expression level at 10 ug, ip for 14 days in presence of Biphenyl isopropyl ester by immunohistochemical analysis. Particulars: dose 10.0 µg, time 14.0 day. Format: functional, organism-based.
Series [15] deals with Candida albicans. The series can be described thus: In vivo antifungal activity against Candida albicans ATCC SC5314 infected in BALB/c mouse assessed as decrease in IFN-gamma expression level at 10 ug, ip for 14 days in presence of Biphenyl isopropyl ester by immunohistochemical analysis. Type of series: functional, organism-based. The conditions noted are these: dose 10.0 µg, time 14.0 day.

Series [16] has as its system Candida albicans. The series can be described thus: In vivo antifungal activity against Candida albicans ATCC SC5314 infected in BALB/c mouse assessed as fold increase in CD3+ expression level in T cells at 10 ug, ip for 14 days in presence of Biphenyl isopropyl ester by immunohistochemical analysis. Type of series: functional, T-cell. Particulars: dose 10 µg, time 14 day.

The subject of series [17] is Cell membrane. Nature of the series: Induction of cell membrane integrity disruption in Candida albicans ATCC SC5314 assessed as decrease in cell wall thickness at 1 microM/ml incubated for 48 to 72 hrs by TEM analysis. Type of series: subcellular. Particulars: time 48-72 hrs.
Series [18] concerns Cell membrane. Nature of the series: Induction of cell membrane integrity disruption in Candida albicans ATCC SC5314 assessed as decrease in cell membrane thickness at 1 microM/ml incubated for 48 to 72 hrs by TEM analysis. Format: subcellular. Particulars: time 48-72 hrs.
Series [19] relates to Cell membrane. The series can be described thus: Induction of cell membrane integrity disruption in Candida albicans ATCC SC5314 assessed as edema vacuoles at 1 microM/ml incubated for 48 to 72 hrs by TEM analysis. Type of series: subcellular. The conditions noted are these: time 48-72 hrs.
For series [20], the system named is Cell membrane. Nature of the series: Induction of cell membrane integrity disruption in Candida albicans ATCC SC5314 assessed as accumulation of low density particulate matter at 1 microM/ml incubated for 48 to 72 hrs by TEM analysis. Type of series: subcellular. Particulars: time 48-72 hrs.

With `OC(Cn1cncn1)(Cn1cncn1)c1ccc(F)cc1F` [FLUCONAZOLE], the outcome in the series with Candida albicans [1], with Candida albicans [2], in the series with Candida albicans [3], with Candida albicans [4], with Candida albicans [5] and in the series on Candida albicans [11] was Active. Further, the outcome in the series on Candida albicans [12], with Candida albicans [13], in the series on Candida albicans [14] and with Candida albicans [15] was Active. Moreover, the Activity entry in series [6] is on record as “Non-Toxic”; in series [7], “Non-Toxic”; in series [8], “Non-Toxic”; in [9], 71.9 IU/L; in series [10], 22.8 nmol/L. Besides, in the series on Candida albicans [16], the “fold change (FC)” value stood at 1.46.
Consider `CC(=O)c1ccc(C(=O)N2CCC(NC(=O)c3nc(-n4cncn4)c4ccccc4n3)CC2)cc1`, for which the result in the series with Cell membrane [17], in the series on Cell membrane [18], with Cell membrane [19] and in the series with Cell membrane [20] was Active.
